Values of other authors in patent US5612056A, “Transdermal formulations” (priority 1991, dated 1997).

Key:
[1] = guinea pig, in vivo
blood cholinesterase = conditions: human, in vivo, iv

CNC(=O)Oc1ccc2c(c1)[C@]1(C)CCN(C)[C@@H]1N2C [physostigmine]
plasma half life [1]: 40 to 50 min | blood cholinesterase inhibition (blood cholinesterase): approximately 30%
